Experimental data as given in paper PMC7351026, “Serum Half-Lives for Short- and Long-Chain Perfluoroalkyl Acids after Ceasing Exposure from Drinking Water Contaminated by Firefighting Foam” (Environmental Health Perspectives, 2020).
Values joined by “and” are separate entries in the source; they are usually repeats but may differ in a detail not shown here. Identical values can stand only once. Like-named read-outs stand apart in the source and are kept apart here. Marks after values point to notes of the source that are not given here.

Key:
[1] = PFAS levels in urine samples of airport employees, specific-gravity adjusted (LC/MS/MS); type: in vivo, human; conditions: for Specific gravity adjusted urine level, median (range): second to fifth samplings, 17 airport employees
Method: Only one employee provided a single urine sample. […] All employees provided written informed consent.
The samples were thawed 1–2 h, then mixed by vortex shaker and manual turning. […] For the urine samples, 50μL urine was mixed with 25μL of methanol and 25μL of a 50% acetonitrile solution containing isotopically labeled internal standards (see Table S1). Then samples were shaken vigorously for 30 min and centrifuged at 3,000×g for 10 min at room temperature.
Aliquots of 20μL of the sample were analyzed using LC/MS/MS. […] The analysis was performed in negative ion mode. The ion source temperature was at 350°C.
(§1) Urinary PFAS concentrations were specific-gravity adjusted. The ratio of urine and serum concentration for each PFAS (urine/serum ratio) at each sampling was calculated based on PFAS concentrations in paired serum and urine samples from 17 employees. Then the personal average urine/serum ratio was calculated using the mean value of repeated samplings for each employee.

[2] = Population average serum elimination rate and half-life (linear mixed model, one compartment, first-order); conditions: for Reduction of half-life estimation after subtraction of background levels: sensitivity analysis vs model with original serum levels; for half-life: human, serum, oral, Half-life (95% CI)
Method: Serum PFAS concentrations were log-transformed. Time was calculated as the elapsed days between supply of clean bottled water and […] blood sampling. We assumed one compartment, first-order elimination kinetics. In this kinetic model, the body is considered as one homogeneous volume in which mixing is instantaneous and from which PFAS could be absorbed, transferred, and eliminated according to the rate of elimination that is proportional to the concentration of PFAS in the body. Two methods were used to estimate serum elimination rate constant (k) and half-life for each PFAS:
Briefly, in the linear mixed model In Cij=αi+tijβ+Xiβ′+εij, Cij is the serum concentration of PFAS for individual i at sampling round j; αi is the subject-specific intercept (random intercept); tij is the time; β is the average slope; Xi is a vector of fixed covariates for individual i; β′ stands for the fixed effect coefficients; and εij is the random error term. We modified the model by excluding the subject-specific slope (random slope) due to a failure to converge after inclusion, which may be due to the limited number of study subjects. The negative value of the average slope ( −β ) is the population average k, and average half-life is calculated as ln2/k .
In the linear mixed model, we included only age and sex as covariates. We based covariate selection on factors that could conceivably confound the PFAS half-life estimation. Working task, duration of employment, number of glasses of water per day, blood donation, and pregnancy before mitigation of PFAS exposure from drinking water can influence the initial serum levels but would not be expected to influence the PFAS half-life.
A sensitivity analysis was performed using the same linear mixed model but with Cij as the serum levels after subtracting general background levels (using the median levels obtained from the nonexposed reference population). If the serum PFAS levels after subtraction were lower than the half of the background levels, they were replaced with half of the background levels.

Serum/water ratio = type: in vivo, human; conditions: median serum level of first samples (26 employees) divided by airport drinking-water level
Method: The ratio of serum and water concentration for each PFAS (serum/water ratio) was calculated based on median serum level in the first serum sample obtained from all 26 airport employees divided by the drinking-water concentration. This ratio is an indicator of PFAS accumulation in body.

[3] = Urine/serum ratio in paired samples; type: in vivo, human; conditions: mean of four paired samplings per subject, 17 airport employees
Method: as §1

[4] = Background serum PFAS levels in reference population from Karlshamn; type: in vivo, human; conditions: reference group from Karlshamn without PFAS contamination in drinking water, N=58, sampled 2016
Text: For comparison with Swedish general background PFAS serum levels, we referred to the PFAS levels observed in a reference population from Karlshamn, a municipality in southern Sweden without PFAS contamination in the municipal drinking water. In 2016, 226 individuals were sampled. Fifty-nine individuals were randomly selected for analyzing other short-chain PFAS than the legacy ones, using the same modified method as for the airport employees. Fifty-eight individuals within the same age range as the airport employees (i.e., >22 years of age ) were included in the comparison. For a detailed description of this population see Li et al. ([2018]).

[5] = cited from earlier work
[6] = set-up: method as in Olsen et al. 2009; conditions: occupationally exposed workers; ref Olsen et al. 2009; cited from earlier work
[7] = set-up: method as in Zhang et al. 2015; conditions: ref Zhang et al. 2015, cited from earlier work
[8] = 2nd sampling (October 2018), count 17
[9] = 3rd sampling (November, 2018), count 16
[10] = 4th sampling (December 2018), count 14
[11] = 5th sampling (January 2019), count 12
[12] = population average, model with original serum levels, age and sex as covariates
[13] = population average, model with serum levels after subtraction of background exposure (sensitivity analysis)
[14] = general Swedish population (Ronneby, 106 Swedes) with high exposure through drinking water, 2 y follow-up from 6 months after clean water, ref Li et al. 2018

| SMILES | Specific gravity adjusted urinary level, 25 percentile [1, 8] | Specific gravity adjusted urinary level, 75 percentile [1, 8] [ng/mL] | Specific gravity adjusted urinary level, Max [1, 8] [ng/mL] | Specific gravity adjusted urinary level, Median [1, 8] | Specific gravity adjusted urinary level, Min [1, 8] | Specific gravity adjusted urinary level, 25 percentile [1, 9] | Specific gravity adjusted urinary level, 75 percentile [1, 9] [ng/mL] | Specific gravity adjusted urinary level, Max [1, 9] [ng/mL] | Specific gravity adjusted urinary level, Median [1, 9] [ng/mL] | Specific gravity adjusted urinary level, Min [1, 9] | Specific gravity adjusted urinary level, 25 percentile [1, 10] | Specific gravity adjusted urinary level, 75 percentile [1, 10] [ng/mL] | Specific gravity adjusted urinary level, Max [1, 10] [ng/mL] | Specific gravity adjusted urinary level, Median [1, 10] | Specific gravity adjusted urinary level, Min [1, 10] | Specific gravity adjusted urinary level, 25 percentile [1, 11] | Specific gravity adjusted urinary level, 75 percentile [1, 11] [ng/mL] | Specific gravity adjusted urinary level, Max [1, 11] [ng/mL] | Constant elimination rate (95% CI) [2, 12] | Serum/water ratio (Serum/water ratio) | further results |
| --- | --- | --- | --- | --- | --- | --- | --- | --- | --- | --- | --- | --- | --- | --- | --- | --- | --- | --- | --- | --- | --- |
| O=S(=O)(O)C(F)(F)C(F)(F)C(F)(F)C(F)(F)C(F)(F)C(F)(F)C(F)(F)C(F)(F)F [L-PFOS, linear perfluorooctane sulfonic acid] | < LOD | 0.01 | 0.08 | < LOD | < LOD | < LOD | 0.02 | 0.03 | 0.01 | < LOD | < LOD | 0.02 | 0.05 | < LOD | < LOD | < LOD | 0.01 | 0.04 | 0.24 (0.07, 0.4) yearly | 153 | Specific gravity adjusted urinary level, Median [1, 11]: < LOD; Specific gravity adjusted urinary level, Min [1, 11]: < LOD; Half-life (95% CI) [2, 12]: 2.91 (1.71, 9.63) year; Constant elimination rate (95% CI) [2, 13]: 0.41 (0.11, 0.71) yearly; Half-life (95% CI) [2, 13]: 1.69 (0.98, 6.04) year; Reduction of half-life estimation after subtraction of background levels [2]: 42%; Personal average urine/serum ratio, median (range) [3]: 0.00092 (0.000035–0.0056); PFAS serum level, median (range) [4]: 3.0 (0.30–9.8) ng/mL; Average half-life [5, 14]: 3.4 y |
| O=S(=O)(O)C(F)(F)C(F)(F)C(F)(F)C(F)(F)F [PFBS, perfluorobutane sulfonic acid] | – | – | – | – | – | – | – | – | – | – | – | – | – | – | – | – | – | – | 5.96 (4.65, 7.27) yearly | 1.65 | Half-life (95% CI) [2, 12]: 0.12 (0.1, 0.15)^d year; Serum level, average [6]: 397 ng/mL; Half-life (geometric mean) ([5]; occupationally exposed workers followed up to 180 d, ref Olsen et al. 2009): 25.8 days |
| O=S(=O)(O)C(F)(F)C(F)(F)C(F)(F)C(F)(F)C(F)(F)C(F)(F)F [PFHxS, perfluorohexane sulfonic acid] | 0.06 ng/mL | 0.13 | 0.28 | 0.09 ng/mL | 0.03 ng/mL | 0.05 ng/mL | 0.13 | 0.26 | 0.07 | 0.03 ng/mL | 0.05 ng/mL | 0.17 | 0.73 | 0.12 ng/mL | 0.04 ng/mL | 0.07 ng/mL | 0.11 | 0.31 | 0.24 (0.16, 0.33) yearly | 107 | Specific gravity adjusted urinary level, Median [1, 11]: 0.08 ng/mL; Specific gravity adjusted urinary level, Min [1, 11]: 0.06 ng/mL; Specific gravity adjusted urine level, median (range) [1]: 0.092 (0.025–0.73) ng/mL; half-life [2, 12]: 1040 days; half-life [2, 13]: 1040 days; Constant elimination rate (95% CI) [2, 13]: 0.24 (0.16, 0.33) yearly; Personal average urine/serum ratio, median (range) [3]: 0.00093 (0.0006–0.0018); PFAS serum level, median (range) [4]: 0.59 ( <LOD –1.2) ng/mL; Average half-life [5, 14]: 5.3 y |
| O=C(O)C(F)(F)C(F)(F)C(F)(F)C(F)(F)C(F)(F)C(F)(F)C(F)(F)F [PFOA, perfluorooctanoic acid] | 0.02 ng/mL | 0.04 | 0.07 | 0.03 ng/mL | 0.01 ng/mL | 0.02 ng/mL | 0.04 | 0.07 | 0.03 | 0.01 ng/mL | 0.02 ng/mL | 0.05 | 0.13 | 0.04 ng/mL | 0.01 ng/mL | 0.03 ng/mL | 0.04 | 0.07 | 0.39 (0.3, 0.49) yearly | 30.3 | Specific gravity adjusted urinary level, Median [1, 11]: 0.03 ng/mL; Specific gravity adjusted urinary level, Min [1, 11]: 0.02 ng/mL; Specific gravity adjusted urine level, median (range) [1]: 0.031 (0.010–0.13) ng/mL; half-life [2, 12]: 646 days; half-life [2, 13]: 541 days; Average serum half-life ([2]; population average, linear mixed model with original serum levels, 17 airport employees after end of drinking-water exposure): 1.77 y; Constant elimination rate (95% CI) [2, 13]: 0.47 (0.35, 0.58) yearly; Reduction of half-life estimation after subtraction of background levels [2]: 16%; Personal average urine/serum ratio, median (range) [3]: 0.0032 and 0.0032 (0.00066–0.0067); concentration at 2016 calendar year of sampling ([4]; human, serum, read-out: PFAS serum level, median (range)): 1.5 ng/mL; Urine/serum ratio ([7]; nonpregnant women): 0.0028; Urine/serum ratio ([7]; pregnant women): 0.0011; Average half-life ([5]; 26 retired fluorochemical production workers, 5-y follow-up, ref Olsen et al. 2007): 3.8 y; half-life ([5]; 138 Germans, 2-y follow-up, ref Brede et al. 2010): 3.3 y; half-life ([5]; 200 Americans, 1-y follow-up, ref Bartell et al. 2010): 2.3 y; Average half-life [5, 14]: 2.7 y |
